The results in this text go back to ChEMBL document CHEMBL1909046, “DrugMatrix in vitro pharmacology data”.

The target in experiment [1] is Matrix metalloproteinase-9 (Homo sapiens, UniProt P14780). Put plainly: biochemical. The format is cell-based.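 Further: inhibition of isolated MMP-9 enzyme activity toward a synthetic peptide substrate, from the DrugMatrix protease screening panel; in other assays of this panel Not Active means under 50% inhibition at 10 µM.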
For another experiment, the target named is Carbonic anhydrase 2 (Homo sapiens, UniProt P00918). Put plainly: DRUGMATRIX: Carbonic Anhydrase II enzyme inhibition (substrate: 4-Nitrophenyl acetate (4-NPA)). The format is tissue-based, Erythrocyte. As to conditions: erythrocyte; Not Active = under 50% inhibition at 10 µM.
A short description of experiment [2]: DRUGMATRIX: Potassium Channel [KATP] radioligand binding (ligand: [3H] Glyburide). The experiment is classed as cell membranes, Membrane. As to conditions: hit-t15; Not Active = under 50% inhibition at 10 µM.
Experiment [3] in a line: DRUGMATRIX: Calcium Channel Type L, Benzothiazepine radioligand binding (ligand: [3H] Diltiazem). The format is cell membranes, Rattus norvegicus, Wistar, Brain, Membrane. As to conditions: Not Active = under 50% inhibition at 10 µM.
Experiment [4] concerns the target T1, Muscarinic acetylcholine receptor M2 (Homo sapiens, UniProt P08172). Further: in other assays of this panel Not Active means under 50% inhibition at 10 µM.
T1 sequence (P08172 whole entry): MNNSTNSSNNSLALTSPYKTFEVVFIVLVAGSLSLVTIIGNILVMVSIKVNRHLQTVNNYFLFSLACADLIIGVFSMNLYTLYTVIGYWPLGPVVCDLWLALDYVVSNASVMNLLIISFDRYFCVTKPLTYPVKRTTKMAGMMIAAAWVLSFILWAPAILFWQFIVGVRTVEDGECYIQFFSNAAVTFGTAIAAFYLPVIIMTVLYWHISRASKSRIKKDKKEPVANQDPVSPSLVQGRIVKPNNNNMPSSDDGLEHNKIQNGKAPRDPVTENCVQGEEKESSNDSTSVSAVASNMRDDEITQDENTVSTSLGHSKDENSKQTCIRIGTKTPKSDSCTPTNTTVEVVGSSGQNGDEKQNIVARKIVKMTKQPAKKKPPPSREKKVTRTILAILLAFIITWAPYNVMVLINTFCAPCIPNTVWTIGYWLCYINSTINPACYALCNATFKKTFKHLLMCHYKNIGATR
The format is cell membranes, CHO-K1, Membrane. As to conditions: cho-k1.

Another experiment has as its target T2, D(4) dopamine receptor (Homo sapiens, UniProt P21917).
T2 sequence (P21917 whole entry): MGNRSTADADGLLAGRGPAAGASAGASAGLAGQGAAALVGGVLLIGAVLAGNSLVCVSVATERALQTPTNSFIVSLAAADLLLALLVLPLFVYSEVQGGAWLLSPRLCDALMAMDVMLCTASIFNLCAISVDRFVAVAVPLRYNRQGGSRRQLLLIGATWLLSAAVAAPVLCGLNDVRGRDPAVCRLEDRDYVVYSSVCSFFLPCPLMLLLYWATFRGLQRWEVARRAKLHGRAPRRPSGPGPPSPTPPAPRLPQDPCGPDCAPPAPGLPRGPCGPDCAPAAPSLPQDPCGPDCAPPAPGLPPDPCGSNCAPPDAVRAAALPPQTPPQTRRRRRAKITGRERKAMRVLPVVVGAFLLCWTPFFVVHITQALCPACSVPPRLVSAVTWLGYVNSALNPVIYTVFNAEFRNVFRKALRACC
Put plainly: DRUGMATRIX: Dopamine D4.2 radioligand binding (ligand: [3H] Spiperone). The experiment is classed as cell membranes, Membrane. As to conditions: cho-k1; Not Active = under 50% inhibition at 10 µM.

Each structure is given as a SMILES string. Where a SMILES comes first, the peptide text is derived from it. Bridges are numbered along the chain shown (N, C = ends). [ ]: non-standard residue; d: D form. The star is where a group is joined. Threoninol(2S,3R) = C[C@@H](O)[C@H](CO)N*

Chain of Matrix metalloproteinase-9 (P14780 whole entry): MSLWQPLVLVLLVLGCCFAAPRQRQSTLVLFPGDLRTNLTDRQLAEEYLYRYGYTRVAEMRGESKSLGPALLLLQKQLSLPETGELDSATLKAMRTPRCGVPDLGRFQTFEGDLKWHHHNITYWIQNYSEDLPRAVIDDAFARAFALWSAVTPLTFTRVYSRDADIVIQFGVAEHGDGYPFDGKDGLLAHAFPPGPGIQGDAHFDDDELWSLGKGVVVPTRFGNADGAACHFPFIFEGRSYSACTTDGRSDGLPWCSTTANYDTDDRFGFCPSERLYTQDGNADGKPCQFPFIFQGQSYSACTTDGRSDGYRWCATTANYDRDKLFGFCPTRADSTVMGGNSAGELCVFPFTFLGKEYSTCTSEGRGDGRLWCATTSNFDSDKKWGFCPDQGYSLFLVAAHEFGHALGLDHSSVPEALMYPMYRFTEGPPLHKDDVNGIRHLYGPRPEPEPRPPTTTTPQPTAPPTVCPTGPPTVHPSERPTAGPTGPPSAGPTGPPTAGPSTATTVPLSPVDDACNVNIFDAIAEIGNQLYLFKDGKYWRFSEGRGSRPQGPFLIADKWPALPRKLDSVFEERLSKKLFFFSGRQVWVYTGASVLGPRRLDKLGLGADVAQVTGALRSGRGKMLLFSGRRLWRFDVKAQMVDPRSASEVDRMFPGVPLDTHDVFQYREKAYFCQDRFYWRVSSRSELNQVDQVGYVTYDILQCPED

For `COc1ccccc1C(=O)N1CCC(Cc2ccccc2)CC1`, the IC50 result (in experiment [1]; against Carbonic anhydrase 2; in experiment [2]; in experiment [3]; in experiment [4]; on D(4) dopamine receptor) was “Not Active” each time. Moreover, the Ki result in experiment [2] and in experiment [3] was “Not Active” in each case.

As for `Cc1ccccc1C(=O)N1CCC(Cc2ccccc2)CC1`, the IC50 entry (in experiment [1]; at Carbonic anhydrase 2; in experiment [2]; in experiment [3]; in experiment [4]; on D(4) dopamine receptor) was “Not Active” each time. The Ki result in experiment [2] and in experiment [3] was “Not Active” in each case.

With `O=C1CC[C@H](N2C(=O)c3ccccc3C2=O)C(=O)N1`, the IC50 result (in experiment [1]; against Carbonic anhydrase 2; in experiment [2]; in experiment [3]; in experiment [4]; on D(4) dopamine receptor) was “Not Active” throughout. For the same compound, the Ki entry in experiment [2] and in experiment [3] was “Not Active” each time.

As to `N=C(Nc1ccccc1)Nc1ccccc1`, the IC50 result (in experiment [1]; against Carbonic anhydrase 2; in experiment [2]; in experiment [3]; in experiment [4]; on D(4) dopamine receptor) was “Not Active” in each case. Besides, the Ki entry in experiment [2] and in experiment [3] was “Not Active” each time.

As for `C[C@@H](O)[C@H](CO)NC(=O)[C@@H]1CSSC[C@H](NC(=O)[C@H](N)Cc2ccccc2)C(=O)N[C@@H](Cc2ccccc2)C(=O)N[C@H](Cc2c[nH]c3ccccc23)C(=O)N[C@@H](CCCCN)C(=O)N[C@@H]([C@@H](C)O)C(=O)N1` (H-[dF]CF[dW]KTC-{Threoninol(2S,3R)}; disulfide 2-7), the IC50 result (in experiment [1]; against Carbonic anhydrase 2; in experiment [2]; in experiment [3]; in experiment [4]; at D(4) dopamine receptor) was “Not Active” in each case. The Ki result in experiment [2] and in experiment [3] was “Not Active” in each case.

On to `S=C=Nc1cccc2ccccc12` [1-NAPHTHYLISOTHIOCYANATE], for which the IC50 entry (in experiment [1]; against Carbonic anhydrase 2; in experiment [2]; in experiment [3]; in experiment [4]; at D(4) dopamine receptor) was “Not Active” in each case. The Ki result in experiment [2] and in experiment [3] was “Not Active” in each case.

As for `C[C@](O)(CS(=O)(=O)c1ccc(F)cc1)C(=O)Nc1ccc(C#N)c(C(F)(F)F)c1` [(R)-BICALUTAMIDE], the IC50 result (in experiment [1]; at Carbonic anhydrase 2; in experiment [2]; in experiment [3]; in experiment [4]; on D(4) dopamine receptor) was “Not Active” each time. Also, the Ki entry in experiment [2] and in experiment [3] was “Not Active” in each case.

In the case of `CCCC(=O)Nc1ccc(OCC(O)CNC(C)C)c(C(C)=O)c1` (stereo not drawn) [ACEBUTOLOL], the IC50 entry (in experiment [1]; at Carbonic anhydrase 2; in experiment [2]; in experiment [3]; in experiment [4]; at D(4) dopamine receptor) was “Not Active” each time. The Ki entry in experiment [2] and in experiment [3] was “Not Active” throughout.

Regarding `CC(=O)Nc1ccc(O)cc1` [ACETAMINOPHEN], the IC50 result (in experiment [1]; at Carbonic anhydrase 2; in experiment [2]; in experiment [3]; in experiment [4]; on D(4) dopamine receptor) was “Not Active” each time. Also, the Ki entry in experiment [2] and in experiment [3] was “Not Active” each time.

Take `COc1cc2c(c3oc(=O)c4c(c13)CCC4=O)[C@@H]1C=CO[C@@H]1O2` [AFLATOXIN]: the IC50 result (in experiment [1]; against Carbonic anhydrase 2; in experiment [2]; in experiment [3]; in experiment [4]; at D(4) dopamine receptor) was “Not Active” each time. The inhibition constant (Ki) result (in experiment [1]; at Carbonic anhydrase 2; in experiment [2]; in experiment [3]; in experiment [4]; at D(4) dopamine receptor) was “Not Active” each time.

As for `N=C(N)NC(=O)c1nc(Cl)c(N)nc1N` [AMILORIDE], the concentration for half-maximal inhibition (IC50) entry (in experiment [1]; against Carbonic anhydrase 2; in experiment [2]; in experiment [3]; in experiment [4]; on D(4) dopamine receptor) was “Not Active” each time. For the same compound, the Ki result in experiment [2] and in experiment [3] was “Not Active” in each case.

With `Cc1cc(=O)n(-c2ccccc2)n1C` [ANTIPYRINE], the IC50 entry (in experiment [1]; against Carbonic anhydrase 2; in experiment [2]; in experiment [3]; in experiment [4]; on D(4) dopamine receptor) was “Not Active” in each case. For the same compound, the Ki result in experiment [2] and in experiment [3] was “Not Active” in each case.

In the case of `CN1C(=O)COc2c(C(=O)NC3CN4CCC3CC4)cc(Cl)cc21` (stereo not drawn) [AZASETRON], the IC50 entry (in experiment [1]; against Carbonic anhydrase 2; in experiment [2]; in experiment [3]; in experiment [4]; at D(4) dopamine receptor) was “Not Active” in each case. Further, the Ki result in experiment [2] and in experiment [3] was “Not Active” each time.

Consider `C[C@H]1C[C@H]2[C@@H]3CCC4=CC(=O)C=C[C@]4(C)[C@@]3(Cl)[C@@H](O)C[C@]2(C)[C@@]1(O)C(=O)CO` [BECLOMETHASONE], for which the concentration for half-maximal inhibition (IC50) entry (in experiment [1]; against Carbonic anhydrase 2; in experiment [2]; in experiment [3]; in experiment [4]; at D(4) dopamine receptor) was “Not Active” throughout. Also, the Ki entry in experiment [2] and in experiment [3] was “Not Active” throughout.

Consider `CCOC(=O)[C@H](CCc1ccccc1)N[C@H]1CCc2ccccc2N(CC(=O)O)C1=O` [BENAZEPRIL], for which the IC50 result (in experiment [1]; at Carbonic anhydrase 2; in experiment [2]; in experiment [3]; in experiment [4]; at D(4) dopamine receptor) was “Not Active” each time. Also, the Ki entry in experiment [2] and in experiment [3] was “Not Active” each time.

Turning to `Nc1c(CC(=O)O)cccc1C(=O)c1ccc(Br)cc1` [BROMFENAC], the IC50 result (in experiment [1]; against Carbonic anhydrase 2; in experiment [2]; in experiment [3]; in experiment [4]; on D(4) dopamine receptor) was “Not Active” each time. Besides, the Ki result in experiment [2] and in experiment [3] was “Not Active” throughout.

Consider `CCCCN1CCCCC1C(=O)Nc1c(C)cccc1C.Cl` (stereo not drawn) [BUPIVACAINE HYDROCHLORIDE], for which the IC50 entry (in experiment [1]; on Carbonic anhydrase 2; in experiment [2]; in experiment [3]; in experiment [4]; on D(4) dopamine receptor) was “Not Active” each time. The Ki result in experiment [2] and in experiment [3] was “Not Active” in each case.

Take `O=C1CC2(CCCC2)CC(=O)N1CCCCN1CCN(c2ncccn2)CC1` [BUSPIRONE]: the IC50 entry (in experiment [1]; against Carbonic anhydrase 2; in experiment [2]; in experiment [3]; in experiment [4]; on D(4) dopamine receptor) was “Not Active” throughout. Moreover, the Ki result in experiment [2] and in experiment [3] was “Not Active” throughout.

In the case of `C[C@@]12C(=O)OC(=O)[C@]1(C)[C@H]1CC[C@@H]2O1` [CANTHARIDIN], the IC50 entry (in experiment [1]; on Carbonic anhydrase 2; in experiment [2]; in experiment [3]; in experiment [4]; at D(4) dopamine receptor) was “Not Active” each time. In addition, the Ki result in experiment [2] and in experiment [3] was “Not Active” throughout.

With `OC(CCN1CCCCC1)(c1ccccc1)C1CCCCC1` (stereo not drawn) [TRIHEXYPHENIDYL], the IC50 result was “Not Active” in experiment [1]; “Not Active” against Carbonic anhydrase 2; “Not Active” in experiment [2]; 4.81 µM in experiment [3] (read-out: IC50); “Not Active” on D(4) dopamine receptor. The Ki result in experiment [2] is “Not Active”; in experiment [3] (read-out: Ki) it was 4.28 µM.

One may read the IC50 as the concentration at which inhibition is half-maximal. A word on the Ki: it is the equilibrium dissociation constant of an inhibitor or competing ligand from its target.
